{"source": "patent US20260325485A1", "about": "“COMPOSITIONS AND METHODS FOR TREATING PANCREATITIS” (The United States Government as represented by the …, priority 2022, published 2026)", "key": {"pancreas": {"system": "pancreas", "assay": "Drug treatment of Gnptab−/− mice: pancreatic total cholesterol", "type": "in vivo, mouse", "protocol": "12-week-old Gnptab−/− mice were subjected to daily i.p. injections of 20 mg/kg simvastatin or the same dose of T0901317 for 4 or 21 days.\nTotal cholesterol content was measured with Cholesterol Assay kit per manufacturer's instructions. Samples of mouse pancreas and liver, cell pellet homogenates, subcellular fractions, isolated mitochondria, and serum were diluted in the reaction buffer containing cholesterol probe and incubated at 37° C. for 1 h in the dark. To measure total cholesterol, the samples were subjected to digestion with cholesterol esterase. To measure non-esterified cholesterol, the esterase was omitted from the assay."}, "CER/CCK-AP": {"system": "CER/CCK-AP", "assay": "Effect of simvastatin and BemA in CER/CCK-AP (mouse and ex-vivo model)", "protocol": "FIGS. 25A-25C show reducing cholesterol overload greatly ameliorates experimental pancreatitis. CER-AP responses were measured in (A) AclyAac or (C) WT mice treated with simvastatin or bempedoic acid (BemA). (B) Acinar cells were transfected with ACLA (or mock) siRNA and subjected to ex-vivo CCK-AP. Each symbol represents an individual mouse or cell preparation. Values are mean±SE. **p<0.01, ***p<0.001 vs saline treated control mice (or mock transfection); #p<0.05, ##p<0.01, ###p<0.001 vs CER/CCK-AP in control mice (i.e. without inhibitors) or cells.\nFIGS. 26A-26D preventing cholesterol overload ameliorates ex-vivo pancreatitis. Mouse pancreatic acinar cells were incubated (A, B) with simvastatin (4 μM, 3 h) or (C, D) cholesterol chelator, methyl-β-cyclodextrin (MCD; 10 mM, 1 h) and then subjected to CCK-AP for 1 (D) or 3 h (A, B). Cholesterol content (A, C) necrosis (B), and trypsin activity (D) were measured. Each symbol represents an individual cell preparation. Values are mean±SEM*p<0/05, **p<0.01 vs control; #p<0.05 ##p<0.01; vs CCK, no inhibitor.\nCholesterol metabolism is disrupted in pancreatitis as a result of lysosomal/autophagy dysfunction. Preventing acinar cell cholesterol overload with simvastatin alleviates AP in one experimental model (CER-AP). As discussed above, lysosomal/autophagy dysfunction is associated with both experimental and human pancreatitis.^6, 7, 9, 13, 17 However, until a recent publication^13 there was very little known on cholesterol metabolism in healthy pancreas, its changes in experimental and human pancreatitis, and role in disease severity. Further, effects of statins and other cholesterol-lowering drugs in pancreas, and the underlying mechanisms, have not been explored. […] This, in turn, stimulates a compensatory increase in cholesterol synthesis, further exacerbating cholesterol overload. It was further shown^13 that inhibition of cholesterol synthesis with simvastatin reduced acinar cell cholesterol overload and the severity of pancreatitis induced with supramaximal cerulein (CER), an ortholog of the hormone cholecystokinin-8 (CCK). The findings^13 reveal a previously unrecognized pathogenic role of cholesterol dysregulation in pancreatitis and indicate normalizing cholesterol metabolism as a novel therapeutic approach for disease treatment.\nIn summary, the published^13 and current data (FIGS. 23-26) reveal that disruption of acinar cell cholesterol metabolism is a common feature in models of experimental pancreatitis and also prominent in human disease. The key manifestation of cholesterol dyshomeostasis in pancreatitis is acinar cell cholesterol overload. […]"}}, "note": "“Also recorded” adds a separate entry of the source.", "data": [{"smiles": "CCC(C)(C)C(=O)O[C@H]1C[C@@H](C)C=C2C=C[C@H](C)[C@H](CC[C@@H]3C[C@@H](O)CC(=O)O3)[C@H]21", "note": "[simvastatin]", "values": [{"measurement": "total cholesterol content in pancreas, Gnptab−/− mice", "setting": "pancreas; 20 mg/kg i.p. daily for 4 or 21 days", "result": "Neither treatment changed"}, {"measurement": "pancreatic total cholesterol, Gnptab−/− mice", "setting": "pancreas; even for 3 weeks", "result": "failed to decrease"}, {"measurement": "cholesterol overload, CER/CCK-AP", "setting": "CER/CCK-AP", "result": "reduced; also recorded: prevented"}, {"measurement": "disease severity, CER/CCK-AP", "setting": "CER/CCK-AP", "result": "reduced"}]}]}
